From US9278925B2, “Substituted 3-(biphenyl-3-yl)-4-hydroxy-8-methoxy-1-azaspiro[4.5]dec-3-en-2-one” (BAYER INTELLECTUAL PROPERTY GMBH, priority 2011, dated 2016)
Where “and” joins values, the source holds several entries; their conditions need not be identical. Identical values can stand only once. Like-named read-outs stand apart in the source and are kept apart here.

Key:
[1] = Maximum tolerated dose (MTD) in female nude mice; format: in vivo, mouse; settings: for Deaths: 21 days; for MTD at 21 days: female, NMRI-nude (nu/nu), mouse, in vivo, administration once per day
Description: To this end, initially the maximum tolerable dose (MTD) was determined using the following protocol:
The MTD was defined as the highest dose which could be administered without any animal dying during the treatment phase, and without any body weight loss of more than 10% compared to the initial weight.
(§1) Administration route: oral
• (Solutol HS15: polyoxyethylene ester of 12-hydroxystearic acid) Administration volume: 10 ml/kg: Protocol: see Table 7
The treatment phase was followed by an observation phase of 21 days.

human PC-3 cells = settings: for T/C: final tumour weight
Description: Xenograft models in immunosuppressed mice were used to determine the antitumour activity in living organisms.
Use was made primarily of a prostate carcinoma model with hormone-independent human PC-3 cells in male nude mice (NMRI-nude (nu/nu) mice, Taconic M&B A/S). To this end, 3 million tumour cells (suspended in medium+Matrigel 1:1, final 0.1 ml) were injected subcutaneously into the side of each animal. When the tumours extended to an area of 20-30 mm^2, the mice were randomized into therapy groups and therapy was initiated. […] At this point in time, the experiment was terminated in all groups and the prepared tumours were weighed.
The T/C value was calculated as primary success parameter using the effect on the final tumour weight: mean tumour weight in the treatment group divided by mean of the tumour weight in the vehicle group.
as §1
Vehicle: PEG400/ethanol/Solutol HS 15 (70/5/25, v/v/v)
Administration volume: 10 ml/kg
Number of mice: see Table 8

[2] = Effective AUC from plasma concentration time profile in the PC3 tumour model; format: in vivo, mouse; settings: for AUC: nu/nu, plasma, oral, read-out: ther. AUC (mouse)
Description: The human pharmacokinetic (PK) parameters (Table 9) were predicted based on the in vivo PK parameters obtained for rats (single species scaling), taking into account the interspecies differences in the free fraction (fu) in the plasma. The effective AUC (area under curve) was determined based on the measured plasma concentration time profile for in vivo efficacy in the PC3 tumour model of the mouse (nu/nu mouse).

human ACC1 [3] = test: Human ACC1 enzyme assay (ADP-Glo); format: biochemical; settings: for Ratio IC50s ACC2/ACC1 (respective measurement): pairwise, same dilution series
Description: (§2) Typical concentrations were in the range of 1.75 μl.

[4] = Membrane affinity logMA (MA-Transil); format: physicochemical; settings: buffer pH 7.4
Description: Assays for Determining Membrane Affinity logMA and Protein Binding to Human Serum Albumin (HSA):
Determination of membrane affinity and protein binding to human serum albumin (HSA) was carried out via Transil technology (literature: A. Loidl-Stahlhofen, A. Eckert, T. Hartmann, M. Schöttner J Pharm Sci 90, 599-606 (2001)). Transil® (commercially available from Sovicell in Leipzig, Germany) are glass beads (diameter 10-12 μm) coated with a double-layer membrane of phosphatidylcholine (MA-Transil) or covalently attached human serum albumin (HSA-Transil).
To determine the logMA and the protein binding constant to HSA, the commercially available TRANSIL Intestinal Absorption & HSA Binding Combined Assay Kit was used. This is a 96-well microtitre plate (96 well-MTP) which is filled with Transil and can be used to determine MA-Transil and HSA-Transil binding of in each case eight active compounds. For each active compound, the Transil plate provides a row of 12 wells. Two wells serve as reference and are only filled with buffer pH 7.4. Five further wells contain MA-Transil in various increasing concentrations, the five remaining wells contain HSA-Transil in various increasing concentrations.
To determine binding of an active compound to Transil, the supernatant of the wells with Transil was quantified against the reference solution without Transil via HPLC-MS coupling (HPLC-MS=high performance liquid chromatography/mass spectrometry).
This is how the individual steps of the assay were carried out:
From the internal substance store, the active compounds were delivered in a 96-well MTP. This plate is referred to as mother plate. Each well contained 30 μl of a 10 mmol solution of active compound in DMSO (dimethyl sulphoxide). Two wells at the start (well A1) and at the end of the plate (well H12) were filled with 30 μl of a 10 mmol solution of warfarin in DMSO. Warfarin, whose membrane affinity and binding to HSA is known, serves to check whether the measurement is correct. The mother plate was used to prepare a daughter plate with a 1 to 4000 dilution with a mixture of buffer pH 7.4 and DMSO in a ratio of 1+1. The active compound concentration of each well was 2.5 μmol/liter, the volume of each well was 400 μl.
Using a Hamilton pipetting robot Microlab STAR, the 96 active compounds from the daughter plate were divided onto 12 Transil plates in total. From each well of the daughter plate, 12 times 20 μl were removed. The concentration of each well of the Transil plate was 0.25 μmol/liter, which corresponds to a dilution of 1 to 10. The DMSO content was 5%.
The filled Transil plates were each resuspended for two minutes, then allowed to stand at room temperature for at least two minutes and then centrifuged at 600 rotations per minute for five minutes. The pipetting robot was then used to remove 20 μl of supernatant from each well of the Transil plate and to transfer these to a separate microtitre plate. Here, the supernatants of in each case four Transil plates were pooled in a microtitre plate, so that at the end there were three pooled microtitre plates with in each case 80 μl of solution and an active compound concentration of 62.5 nM per well.
Prior to quantification of the active compounds by HPLC-MS, an optimization has to be carried out for each active compound where by way of a single injection daughter ion and optimum electrical voltages are determined. To this end, the pipetting robot prepared a dilution of the mother plate of 1 to 10 000 000 in an acetonitrile/water mixture in a ratio of 8+2 in a separate microtitre plate. This microtitre plate was measured by HPLC-MS using the software Discovery Quant Optimize from AB Sciex. The three pooled microtitre plates were measured by HPLC-MS using the software Discovery Quant Analyze from AB Sciex. […]

human ACC1 [5] = biological target: human ACC1 (Homo sapiens, UniProt Q13085); test: Human ACC1 enzyme assay (ADP-Glo); format: biochemical; settings: individual measurement (measurement no./preparation no. in table); read-out: ACC 1 IC50
Description: as §2

human ACC2 = human ACC2 (Homo sapiens (Human), UniProt O00763); test: Human ACC2 enzyme assay (ADP-Glo); settings: read-out: ACC 2 IC50, individual measurement (measurement no./preparation no. in table)
human ACC2, sequence (O00763 27-2458 limits assumed): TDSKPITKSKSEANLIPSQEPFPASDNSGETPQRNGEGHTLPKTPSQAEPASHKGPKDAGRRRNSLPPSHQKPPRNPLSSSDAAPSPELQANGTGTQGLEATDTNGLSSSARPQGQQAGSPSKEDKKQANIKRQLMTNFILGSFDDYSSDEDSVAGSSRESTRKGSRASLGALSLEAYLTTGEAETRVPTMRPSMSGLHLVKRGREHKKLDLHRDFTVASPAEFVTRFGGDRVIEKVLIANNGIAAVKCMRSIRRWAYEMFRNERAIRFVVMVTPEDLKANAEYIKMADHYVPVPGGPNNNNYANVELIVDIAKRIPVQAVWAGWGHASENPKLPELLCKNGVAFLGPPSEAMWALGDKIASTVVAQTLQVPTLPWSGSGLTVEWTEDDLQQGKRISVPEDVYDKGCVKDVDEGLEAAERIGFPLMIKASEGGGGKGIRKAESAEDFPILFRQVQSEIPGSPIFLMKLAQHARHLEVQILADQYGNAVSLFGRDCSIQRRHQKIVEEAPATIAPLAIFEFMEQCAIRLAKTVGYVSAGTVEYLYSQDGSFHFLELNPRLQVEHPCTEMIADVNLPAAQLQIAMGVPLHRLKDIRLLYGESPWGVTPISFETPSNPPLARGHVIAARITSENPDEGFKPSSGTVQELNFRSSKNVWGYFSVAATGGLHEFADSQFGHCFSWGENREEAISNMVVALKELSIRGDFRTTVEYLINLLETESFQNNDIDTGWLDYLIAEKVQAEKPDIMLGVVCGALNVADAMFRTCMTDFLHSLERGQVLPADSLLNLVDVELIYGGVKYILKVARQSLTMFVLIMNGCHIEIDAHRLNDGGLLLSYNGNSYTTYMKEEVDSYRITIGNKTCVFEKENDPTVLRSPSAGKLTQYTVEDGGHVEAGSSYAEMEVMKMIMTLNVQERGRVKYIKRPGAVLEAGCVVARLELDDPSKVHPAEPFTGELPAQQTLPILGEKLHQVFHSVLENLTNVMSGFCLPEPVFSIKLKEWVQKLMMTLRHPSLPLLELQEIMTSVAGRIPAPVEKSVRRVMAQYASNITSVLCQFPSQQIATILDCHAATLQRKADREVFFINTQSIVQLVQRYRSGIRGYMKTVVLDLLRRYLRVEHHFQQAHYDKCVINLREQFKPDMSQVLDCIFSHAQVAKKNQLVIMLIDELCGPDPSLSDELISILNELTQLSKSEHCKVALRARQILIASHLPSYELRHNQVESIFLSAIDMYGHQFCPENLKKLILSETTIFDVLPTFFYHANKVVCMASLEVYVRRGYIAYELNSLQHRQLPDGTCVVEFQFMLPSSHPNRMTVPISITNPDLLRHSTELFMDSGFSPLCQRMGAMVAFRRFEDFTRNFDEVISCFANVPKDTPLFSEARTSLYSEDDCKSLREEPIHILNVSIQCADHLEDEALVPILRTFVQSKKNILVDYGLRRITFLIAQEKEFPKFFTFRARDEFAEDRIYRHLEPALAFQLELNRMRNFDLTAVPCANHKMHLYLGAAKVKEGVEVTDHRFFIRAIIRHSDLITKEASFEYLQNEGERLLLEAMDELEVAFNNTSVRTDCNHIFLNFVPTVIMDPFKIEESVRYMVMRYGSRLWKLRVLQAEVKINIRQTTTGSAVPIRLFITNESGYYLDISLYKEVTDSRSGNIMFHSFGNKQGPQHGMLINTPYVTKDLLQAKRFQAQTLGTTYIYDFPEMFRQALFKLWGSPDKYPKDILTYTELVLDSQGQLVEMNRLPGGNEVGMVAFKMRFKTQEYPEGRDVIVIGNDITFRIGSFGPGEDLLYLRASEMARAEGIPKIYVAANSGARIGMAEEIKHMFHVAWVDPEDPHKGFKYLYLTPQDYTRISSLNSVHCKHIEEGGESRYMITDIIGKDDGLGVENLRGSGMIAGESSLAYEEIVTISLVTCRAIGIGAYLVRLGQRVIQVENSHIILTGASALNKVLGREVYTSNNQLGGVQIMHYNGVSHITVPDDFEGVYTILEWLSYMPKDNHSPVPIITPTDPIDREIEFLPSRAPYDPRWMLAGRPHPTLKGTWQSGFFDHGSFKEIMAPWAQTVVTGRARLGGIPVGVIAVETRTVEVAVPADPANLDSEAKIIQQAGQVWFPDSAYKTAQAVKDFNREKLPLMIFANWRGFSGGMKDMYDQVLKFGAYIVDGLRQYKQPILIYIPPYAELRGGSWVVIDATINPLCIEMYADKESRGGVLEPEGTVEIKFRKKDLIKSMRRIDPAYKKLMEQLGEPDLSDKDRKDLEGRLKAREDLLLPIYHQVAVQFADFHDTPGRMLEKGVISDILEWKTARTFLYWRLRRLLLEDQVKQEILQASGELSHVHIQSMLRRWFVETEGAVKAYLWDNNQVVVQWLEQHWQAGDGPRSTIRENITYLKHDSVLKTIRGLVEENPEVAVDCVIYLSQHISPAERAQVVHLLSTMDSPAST

[6] = 100 mg/kg oral, 1 administration per day
[7] = 80 mg/kg oral, 17 days, 2 administrations per day
[8] = 80 mg/kg, administration 2 times per day
[9] = dosage (mouse) 80 mg/kg 2 × per day
[10] = 25 mg/kg oral, 1 administration per day
[11] = 50 mg/kg oral, 1 administration per day
[12] = 80 mg/kg oral, 15 days, 2 administrations per day
[13] = 100 mg/kg oral, 14 days, 1 administration per day
[14] = 100 mg/kg oral, 14 days, 2 administrations per day
[15] = 40 mg/kg oral, 17 days, 2 administrations per day

Row | Compound | Deaths [1, 6] | MTD at 21 days ([1]; 21-day treatment, oral) [mg/kg] | tolerability (good: body weight change <=minus 10% and 100% survival) (human PC-3 cells; [8]) | AUC [2, 9] [µg·h/mL] | Selectivity ACC1 vs. ACC2 (mean of the individual measurements ± standard deviation) (human ACC1 [3]) | Ratio IC50s ACC2/ACC1 (respective measurement) (human ACC1 [3]) | logMA [4] | IC50 (human ACC1 [5]) | IC50 (human ACC2) | other results
1 | COC[C@]1(OC)CC[C@@]2(CC1)NC(=O)C(c1cc(-c3ccc(Cl)c(F)c3)ccc1C)=C2O [Example 1-4, (5r,8r)-3-(4′-Chloro-3′-fluoro-4-methylbiphenyl-3-yl)-4-hydroxy-8-methoxy-8-(methoxymethyl)-1-azaspiro[4.5]dec-3-en-2-one] | 0 of 4 | > 100 | good tolerability | 712 | – | – | – | – | – | Deaths ([1]; 25 mg/kg oral, 2 administrations per day): 0 of 4; Deaths ([1]; 50 mg/kg oral, 2 administrations per day): 0 of 4; Deaths ([1]; 75 mg/kg oral, 2 administrations per day): 0 of 4; Deaths ([1]; 100 mg/kg oral, 2 administrations per day): 0 of 4; MTD ([1]; 21-day treatment, administration twice per day, oral): higher than 100 mg/kg; Deaths (human PC-3 cells; [7]): 0 of 10; T/C (human PC-3 cells; [7]): 0.29
2 | CO[C@]1(C(F)(F)F)CC[C@]2(CC1)NC(=O)C(c1cc(-c3ccc(Cl)cc3)ccc1C)=C2O [Example 1-1, (5r,8r)-3-(4′-Chloro-4-methylbiphenyl-3-yl)-4-hydroxy-8-methoxy-8-(trifluoromethyl)-1-azaspiro[4.5]dec-3-en-2-one] | 0 of 4 | > 100 | good tolerability | 289 | – | – | – | – | – | Deaths ([1]; 12.5 mg/kg oral, 1 administration per day): 0 of 4; Deaths [1, 10]: 0 of 4; Deaths [1, 11]: 1 of 4; Deaths ([1]; 75 mg/kg oral, 1 administration per day): 0 of 4; Deaths (human PC-3 cells; [12]): 0 of 10; T/C (human PC-3 cells; [12]): 0.34
3 | COC[C@H]1CC[C@]2(CC1)NC(=O)C(c1cc(-c3ccc(Cl)cc3)ccc1C)=C2O [V.3-b, (5s,8s)-3-(4′-Chloro-4-methylbiphenyl-3-yl)-4-hydroxy-8-(methoxymethyl)-1-azaspiro[4.5]dec-3-en-2-one] | – | – | – | – | 6.4 | 6.4 | 2.08 | – | – | –
4 | CO[C@]1(C)CC[C@]2(CC1)NC(=O)C(c1cc(-c3ccc(Cl)cc3)ccc1C)=C2O [Example V.1-a, (5r,8r)-3-(4′-Chloro-4-methylbiphenyl-3-yl)-4-hydroxy-8-methoxy-8-methyl-1-azaspiro[4.5]dec-3-en-2-one] | 0 of 4 | > 100 | – | – | 28.2 ± 8.5 | – | 1.4 | 108 nM and 182 nM and 132 nM and 97 nM and 55 nM and 104 nM and 213 nM and 137 nM and 151 nM and 81 nM and 91 nM and 147 nM and 158 nM | 3.13 µM and 3.93 µM and 4.54 µM and 2.53 µM and 2.33 µM and 2.51 µM and 3.36 µM and 2.75 µM and 2.03 µM and 2.86 µM and 3.32 µM and 5.14 µM and 5.2 µM | Deaths [1, 10]: 0 of 4; Deaths [1, 11]: 0 of 4; Deaths (human PC-3 cells; [13]): 0 of 9; T/C (human PC-3 cells; [13]): 0.30; Deaths (human PC-3 cells; [14]): 2 of 9; T/C (human PC-3 cells; [14]): 0.15; tolerability (good: body weight change <=minus 10% and 100% survival) (human PC-3 cells; 100 mg/kg, administration 2 times per day): no good tolerability; tolerability (good: body weight change <=minus 10% and 100% survival) (human PC-3 cells; 100 mg/kg, administration once per day): good tolerability; ther. AUC (mouse) ([2]; dosage (mouse) 100 mg/kg 1 × per day): 984 mg·h/L; ther. AUC (mouse) ([2]; dosage (mouse) 100 mg/kg 2 × per day): 1495 mg·h/L; IC50 (human ACC2; listed as V.3-a): 3.13 µM and 3.93 µM and 4.54 µM and 2.53 µM and 2.33 µM and 2.51 µM and 3.36 µM and 2.75 µM and 2.03 µM and 2.86 µM and 3.32 µM and 5.14 µM and 5.2 µM
5 | Cc1ccc(-c2ccc(Cl)c(F)c2)cc1C1=C(O)[C@]2(CC[C@](O)(C(F)(F)F)CC2)NC1=O [V.2-c, (5r,8r)-3-(4′-Chloro-3′-fluoro-4-methylbiphenyl-3-yl)-4,8-dihydroxy-8-(trifluoromethyl)-1-azaspiro[4.5]dec-3-en-2-one] | – | – | – | – | – | – | 2.3 | – | – | –
6 | Cc1ccc(-c2ccc(Cl)cc2)cc1C1=C(O)[C@]2(CC[C@](O)(C(F)(F)F)CC2)NC1=O [V.1-c, (5r,8r)-3-(4′-Chloro-4-methylbiphenyl-3-yl)-4,8-dihydroxy-8-(trifluoromethyl)-1-azaspiro[4.5]dec-3-en-2-one] | – | – | – | – | – | – | 2.1 | – | – | –
7 | CO[C@]1(C(F)(F)F)CC[C@]2(CC1)NC(=O)C(c1cc(-c3ccc(Cl)c(F)c3)ccc1C)=C2O [Example 1-2, (5r,8r)-3-(4′-Chloro-3′-fluoro-4-methylbiphenyl-3-yl)-4-hydroxy-8-methoxy-8-(trifluoromethyl)-1-azaspiro[4.5]dec-3-en-2-one] | – | – | good tolerability | 156 | – | – | – | – | – | Deaths (human PC-3 cells; [15]): 0 of 9; T/C (human PC-3 cells; [15]): 0.44; tolerability (good: body weight change <=minus 10% and 100% survival) (human PC-3 cells; 40 mg/kg, administration 2 times per day): good tolerability; Deaths (human PC-3 cells; [7]): 0 of 9; T/C (human PC-3 cells; [7]): 0.28; AUC ([2]; dosage (mouse) 40 mg/kg 2 × per day): 66 µg·h/mL
8 | COC[C@H]1CC[C@]2(CC1)NC(=O)C(c1cc(-c3ccc(Cl)c(F)c3)ccc1C)=C2O [V.4-b, (5s,8s)-3-(4′-Chloro-3′-fluoro-4-methylbiphenyl-3-yl)-4-hydroxy-8-(methoxymethyl)-1-azaspiro[4.5]dec-3-en-2-one] | – | – | – | – | 15.2 | 15.2 | 2.13 | 73 nM | 1.12 µM | –
9 | COC[C@]1(OC)CC[C@@]2(CC1)NC(=O)C(c1cc(-c3ccc(Cl)cc3)ccc1C)=C2O [Example 1-3, (5r,8r)-3-(4′-Chloro-4-methylbiphenyl-3-yl)-4-hydroxy-8-methoxy-8-(methoxymethyl)-1-azaspiro[4.5]dec-3-en-2-one] | – | – | – | – | 47.0 ± 2.1 | 49.0 and 44.9 | <1.0 | 165 nM and 146 nM | 8.08 µM and 6.55 µM | –
